Data published in patent US20250082765A1, “MOLECULES AS ANTICANCER AGENTS FOR TARGETED TREATMENT OF BREAST AND PROSTATE CANCER” (priority 2021, published 2025).

Experiments:
[1] = in vivo; details: albino, mouse, intravenous
Description: (§1) The route of administration incorporated for ester of citric acid with capecitabine and estrogen and ester of citric acid with capecitabine and dihydrotestosterone is through intravenous (IV) bolus.
(§2) The biodistribution analysis was carried out for capecitabine in plasma. […] The biodistribution analysis was carried out in breast tissue for females and in prostate gland for males along with several other organs including blood, liver, lungs and spleen.
(§3) The biodistribution analysis was carried out in three groups of albino mice. The female albino mice of age 7-8 weeks and weight 19g-35g were analyzed for the distribution of capecitabine in breast tissue. The male albino mice of age 7-8 weeks and weight 20g-30g were analyzed for the distribution of capecitabine in prostate gland. The study groups comprised of 3 groups including group 1, group 2 and group 3. The study group 1 comprised 6 mice receiving normal control, study group 2 comprised 6 mice receiving pure drug solution and study group 3 comprised 6 mice receiving molecule of formula (I) anticancer drug.
(§4) The analysis of capecitabine in plasma was initiated by liquid-liquid extraction using ethyl acetate. The extraction was carried out on ethylene bridged hybrid (BEH) C18 (100×2.1 mm, 1.7 μm) column. An isocratic flow rate of 0.5 ml/min of acetonitrile (0.1%) and 0.002M ammonium acetate as mobile phase was incorporated. Mass spectrometry analysis was carried out in multiple reaction monitoring modes. The precursor to product ion transitions with mass to ion (m/z) ratio of 360.04 to 244.08 was found for capecitabine. […] The biodistribution data for capecitabine was obtained for concentrations ranging from 5 ng/ml and 40 ng/ml.
(§5) The biodistribution of capecitabine was also analyzed for several other organs such as blood, liver, lungs and the spleen. […] The biodistribution of capecitabine was analyzed at time intervals of 0.5 hours, 1 hour and 2 hours. The biodistribution data was recorded for 6 mice.

[2] = Biodistribution analysis of capecitabine in other organs (blood, liver, lungs, spleen) of mice; details: later hours (1 hour, 2 hours)
Description: as §1, §2, §3, §4, §5

concentration at 0.5 h ([1]; liver): 13 ng/mL | concentration at 0.5 h ([1]; lungs): 12.5 ng/mL | concentration at 0.5 h ([1]; spleen): 12.1 ng/mL | concentration at 0.5 h ([1]; whole blood): 13.6 ng/mL | biodistribution of capecitabine in blood [2]: negligible | biodistribution of capecitabine in liver [2]: negligible | biodistribution of capecitabine in lungs [2]: negligible | biodistribution of capecitabine in spleen [2]: negligible
SMILES: CCCCCOC(=O)Nc1nc(=O)n([C@@H]2O[C@H](C)[C@@H](O)[C@H]2O)cc1F [capecitabine]
